Measurements as given in the NIST ThermoML archive (doi:10.1021/je200369m).
Values joined by “and” are separate entries in the source; they are usually repeats but may differ in a detail not shown here. Equal values may be shown once.

Details: for mass density: Fluid (supercritical or subcritical phases), Buoyancy - hydrostatic balance with magnetic suspension - two sinkers; for vapor or sublimation pressure: Liquid, Closed cell

C=C(F)C(F)(F)F [2,3,3,3-tetrafluoro-1-propene]
Details | mass density [kg/m3]
232.01 K, 1003.6 kPa | 1297.66
235.01 K, 1354.4 kPa | 1290.57
240.01 K, 1309.7 kPa | 1276.93
240.01 K, 5597.9 kPa | 1288.72
245 K, 5368.7 kPa | 1275.09
250 K, 2009.3 kPa | 1251.5
250 K, 9475.2 kPa | 1273.53
255 K, 5782.7 kPa | 1249.79
260 K, 1001.4 kPa | 1219.36
260 K, 9586.2 kPa | 1248.32
265 K, 3824.7 kPa | 1215.48
270 K, 1753.3 kPa | 1192.46
270 K, 7264.8 kPa | 1214.11
275 K, 4931.1 kPa | 1190.99
280 K, 1780.9 kPa | 1161.43
280 K, 8123.4 kPa | 1189.71
285 K, 4675.9 kPa | 1160.07
290 K, 1604.8 kPa | 1127.36
290 K, 7579.1 kPa | 1158.85
295 K, 4198.6 kPa | 1126
300 K, 1079.2 kPa | 1087.77
300 K, 6812.1 kPa | 1124.85
305 K, 3364.3 kPa | 1086.43
309.99 K, 5673.9 kPa | 1085.35
310 K, 1004 kPa | 1047.05
314.99 K, 2511.7 kPa | 1041.01
319.99 K, 553.9 kPa | 26.402
320 K, 973.2 kPa | 51.726
320 K, 4518 kPa | 1040.05
325 K, 1456.3 kPa | 982.689
329.99 K, 574 kPa | 26.306
330 K, 979.2 kPa | 49.047
330 K, 985.9 kPa | 49.464
330 K, 3108.2 kPa | 981.791
335 K, 1592.5 kPa | 92.726
335 K, 1798 kPa | 932.524
335 K, 4770.8 kPa | 980.976
340 K, 593.8 kPa | 26.211
340 K, 980.9 kPa | 46.55
340 K, 993.5 kPa | 47.298
340 K, 1640.5 kPa | 92.612
340 K, 1827.8 kPa | 110.941
340 K, 3191.5 kPa | 931.599
345 K, 4594.1 kPa | 930.707
350 K, 613.2 kPa | 26.12
350 K, 985.9 kPa | 44.652
350 K, 1003 kPa | 45.555
350 K, 1736.8 kPa | 92.623
350 K, 2261.9 kPa | 146.58
350 K, 2461 kPa | 839.342
350 K, 6005.4 kPa | 929.873
355 K, 2740.3 kPa | 801.182
360 K, 632.4 kPa | 26.029
360 K, 987.2 kPa | 42.763
360 K, 1005.2 kPa | 43.637
360 K, 1830.5 kPa | 92.622
360 K, 2067 kPa | 110.845
360 K, 2433.6 kPa | 146.594
360 K, 2545.4 kPa | 160.529
360 K, 2767.9 kPa | 197.534
360 K, 3210.5 kPa | 772.483
360 K, 3638.8 kPa | 800.559
362 K, 2963.7 kPa | 235.115
365 K, 991.9 kPa | 42.073
365 K, 1876.6 kPa | 92.619
365 K, 2516.7 kPa | 146.549
365 K, 2892.6 kPa | 197.483
365 K, 3086.7 kPa | 243.237
365 K, 4553.7 kPa | 799.933
368 K, 3184.3 kPa | 243.231
370 K, 651.2 kPa | 25.938
370 K, 993.7 kPa | 41.326
370 K, 996.3 kPa | 41.436
370 K, 2181.6 kPa | 110.789
370 K, 2598.5 kPa | 146.499
370 K, 2866.8 kPa | 176.561
370 K, 3014.9 kPa | 197.482
370 K, 3248.6 kPa | 243.253
370 K, 3252.2 kPa | 244.129
370 K, 5480.7 kPa | 799.34
370.01 K, 1920.5 kPa | 92.497
380 K, 667.9 kPa | 25.765
380 K, 994.8 kPa | 39.809
380 K, 2293.9 kPa | 110.737
380 K, 3047.3 kPa | 173.864
380 K, 3496.1 kPa | 231.99
380 K, 6583.2 kPa | 770.356
390 K, 670.7 kPa | 25.062
390 K, 987.8 kPa | 38.088
390 K, 2404.1 kPa | 110.68
400 K, 683.2 kPa | 24.785
400 K, 991.4 kPa | 36.952
400 K, 2512.9 kPa | 110.64

Details | vapor or sublimation pressure
250 K | 133.03 kPa and 133.37 kPa
260 K | 197.44 kPa
270 K | 283.41 kPa and 283.03 kPa and 283.48 kPa
280 K | 395.91 kPa
290 K | 538.95 kPa and 539.38 kPa and 539.42 kPa
300 K | 718.68 kPa
309.99 K | 938.57 kPa
310 K | 939.28 kPa and 939.3 kPa
312 K | 989.09 kPa
314 K | 1040.9 kPa
316 K | 1094.4 kPa
319.99 K | 1206.8 kPa and 1207 kPa and 1206.4 kPa
320 K | 1207.6 kPa and 1207.7 kPa
330 K | 1529 kPa
340 K | 1910.2 kPa
350 K | 2361.4 kPa
355 K | 2616.5 kPa
360 K | 2893.8 kPa
362 K | 3011.5 kPa
364 K | 3133.6 kPa
366 K | 3260.2 kPa
